Source: a compilation of properties of binary mixtures (doi:10.1021/acs.jced.0c00987)

Assay: xn = mol fraction of the nth substance listed
Conditions: 100 kPa

OCCN(CCO)CCO + CCOS(=O)(=O)[O-].CC[n+]1ccn(C)c1
Conditions | electrical conductivity, 298.15 K [S/m] | electrical conductivity, 313.15 K [S/m] | viscosity, 293.15 K [mPa·s] | viscosity, 298.15 K [mPa·s] | viscosity, 303.15 K [mPa·s] | viscosity, 313.15 K [mPa·s]
x1 = 0.153 | 0.356 | – | – | 97.8 | 77.1 | –
x1 = 0.285 | 0.284 | 0.53 | 121.9 | 94.1 | 74 | 48.1
x1 = 0.52 | 0.173 | 0.349 | 137.4 | 103.5 | 79.5 | 49.8
x1 = 0.617 | 0.126 | 0.266 | – | 117.8 | – | 54.3
x1 = 0.703 | 0.085 | 0.189 | 209.4 | 151.8 | 112.4 | 66
x1 = 0.787 | – | 0.108 | 286.6 | – | 146.5 | 82.5
x1 = 0.866 | 0.0219 | 0.055 | 416 | 287.3 | – | 110.1
x1 = 0.929 | – | 0.0234 | 583 | – | – | 143.5
x1 = 0.967 | – | 0.0103 | – | – | – | 167.7
x2 = 0.003 | 0.0004 | 0.0012 | 871 | 579 | 394 | 197.1
x2 = 0.006 | 0.0008 | 0.0021 | 857 | 570 | – | 195.3
x2 = 0.019 | 0.0021 | 0.0058 | 792 | 528 | 361 | 182.4

OCCO + CCOS(=O)(=O)[O-].CC[n+]1ccn(C)c1
x1 = 1
Conditions | viscosity [mPa·s]
293.15 K | 20.8
313.15 K | 9.52

CC[n+]1ccn(C)c1.O=S(=O)([O-])C(F)(F)F + OCC(O)CO
Conditions | electrical conductivity, 298.15 K [S/m] | electrical conductivity, 313.15 K [S/m] | viscosity, 293.15 K [mPa·s] | viscosity, 298.15 K [mPa·s] | viscosity, 303.15 K [mPa·s] | viscosity, 313.15 K [mPa·s]
x1 = 0.002 | 0.0003 | 0.0008 | – | 887 | 588 | 280.1
x1 = 0.004 | 0.0006 | 0.0018 | 1333.2 | 862 | 572 | 272.9
x1 = 0.011 | 0.0014 | 0.0044 | 1257.8 | 815 | 543 | 259.2
x1 = 0.018 | 0.0025 | – | 1168.4 | 760 | 506 | –
x2 = 0.199 | 0.85 | 1.35 | – | 40.1 | 33.2 | 23.6
x2 = 0.299 | 0.77 | – | 50.2 | 40.7 | 33.4 | –
x2 = 0.401 | – | 1.16 | 57.2 | – | 36.6 | 24.9
x2 = 0.499 | 0.492 | 0.89 | 70.2 | 54.4 | 42.9 | 28
x2 = 0.605 | 0.316 | 0.6 | – | 73.4 | 56 | 34.7
x2 = 0.698 | 0.198 | 0.416 | – | 106.2 | 78.8 | 46.3
x2 = 0.805 | 0.089 | 0.21 | 261.5 | 182.8 | 130.6 | 71.6
x2 = 0.899 | 0.0255 | 0.066 | 545 | 366 | 251.6 | 128.5
x2 = 0.919 | 0.0172 | 0.0486 | 646 | 430 | 293.3 | 147.6
x2 = 0.962 | 0.0056 | 0.0174 | – | 633 | – | 206.8

OCCO + CC[n+]1ccn(C)c1.O=S(=O)([O-])C(F)(F)F
x1 = 1
Conditions | viscosity [mPa·s]
293.15 K | 20.8
298.15 K | 16.8
303.15 K | 13.8
313.15 K | 9.52
